Data from US20250213707A1, “COMPOUND FOR INCREASING EFFICACY OF ONCOLYTIC VIRUSES” (ABLEVIA BIOTECH GMBH, priority 2022, published 2025).

Tested on: IgG from human donors (anti-AAV antibodies)
Assay: Screen for anti-AAV antibodies in human sera, 2452 linear 15-amino-acid AAV peptides on microarrays (Table 1)
Format: binding
Set-up: key to group I: X: the deduplicated aggregate of the respective top 10 peptide hits for each donor was compiled and designated as group I; key to group II: X: the deduplicated aggregate of the respective top 25 peptide hits for each donor was compiled and designated as group II; key to group III: X: the deduplicated aggregate of the respective top 50 peptide hits for each donor was compiled and designated as group III
Conditions: for group I: membership in deduplicated aggregate of top 10 peptide hits for each donor
Procedure: 2452 linear peptides derived from the sequences of 16 different AAVs and with a sequence length of 15 amino-acids each were synthesized.
Samples obtained from human donors were screened for antibodies against these AAV-derived peptides immobilized on microarrays. To this end, IgG was prepared from blood obtained from the human donors by protein G purification. Each IgG sample was incubated with the peptide microarrays and Ig binding signals were detected by fluorescence. All antibody binding signals to the peptides on the arrays were background subtracted and ranked for each sample and a deduplicated aggregate of the respective top 250 peptide hits for each donor with the corresponding protein sequence of origin (as obtained from UniProt or other sources) was compiled (designated as group IV). Further, the deduplicated aggregate of the respective top 50 peptide hits for each donor was compiled and designated as group III. Further, the deduplicated aggregate of the respective top 25 peptide hits for each donor was compiled and designated as group II. Finally, the deduplicated aggregate of the respective top 10 peptide hits for each donor was compiled and designated as group I.
Altogether, group I contains 110 distinct peptide hits (assigned to the corresponding AAV vectors in Table 1), group II contains 289 distinct peptide hits, group III contains 428 distinct peptide hits and group IV contains 1271 distinct peptide hits. Evidently, group I is a subset of group II which in turn is a subset of group III which in turn is a subset of group IV. Groups I-IV correspond to the top 4.4%, […], 17.5% and 51.8%, respectively, of all peptides screened.

[1] = human donor IgG binding to linear 15-amino-acid AAV peptides on microarray, fluorescence
[2] = membership in deduplicated aggregate of top 25 peptide hits for each donor, human donor IgG binding to linear 15-amino-acid AAV peptides on microarray, fluorescence
[3] = membership in deduplicated aggregate of top 50 peptide hits for each donor, human donor IgG binding to linear 15-amino-acid AAV peptides on microarray, fluorescence
[4] = X = peptide belongs to the deduplicated aggregate of the top 50 peptide hits for each donor, linear 15-amino-acid AAV peptides, IgG binding by fluorescence
[5] = X = peptide in the deduplicated aggregate of the top 50 peptide hits for each donor (top 17.5% of all peptides screened), linear 15-amino-acid AAV peptides on microarrays, human donor IgG, fluorescence

Substance	group I [1]	group II [2]	group III [3]	group III [4]	further results
LQQQNAAPIVGAVN (REGION 1..14: note = peptide derived from viral capsid protein) [SEQ ID NO: 1955]	X	X	X	–	–
DEEEIKATNPVATE (REGION 1..14: note = peptide derived from viral capsid protein) [SEQ ID NO: 1932]	X	X	X	–	–
EYQLPYVLGSAHQG (REGION 1..14: note = peptide derived from viral capsid protein) [SEQ ID NO: 1948]	X	X	X	–	–
300 (TFNQAKLASFITQYS; REGION 1..15: note = peptide derived from viral capsid protein) [compound 300]	–	–	–	X	–
LPYVLGSAHQGCLP (REGION 1..14: note = peptide derived from viral capsid protein) [SEQ ID NO: 1954]	X	X	X	–	–
285 (PSKMLRTGNNFEFTY; REGION 1..15: note = peptide derived from viral capsid protein) [compound 285]	–	–	–	X	group II (X = peptide belongs to the deduplicated aggregate of the top 25 peptide hits for each donor, linear 15-amino-acid AAV peptides, IgG binding by fluorescence): X
343 (TFEDVPFHSSYAHSQ; REGION 1..15: note = peptide derived from viral capsid protein) [compound 343]	–	–	–	X	–
407 (NTPVPADPPTAFNKD; REGION 1..15: note = peptide derived from viral capsid protein) [compound 407]	–	–	–	–	group III [5]: X
HSQSLDRLMNPLID (REGION 1..14: note = peptide derived from viral capsid protein) [SEQ ID NO: 1951]	X	X	X	–	–
476 (PSTSSDAEAGPSGSQ; REGION 1..15: note = peptide derived from viral capsid protein) [compound 476]	–	–	–	–	group III [5]: X
369 (EYQLPYVLGSAHQGC; REGION 1..15: note = peptide derived from viral capsid protein) [compound 369]	–	–	–	X	–
QLPYVLGSAHQGCL (REGION 1..14: note = peptide derived from viral capsid protein) [SEQ ID NO: 1962]	X	X	X	–	–
332 (ISSQSGASNDNHYFG; REGION 1..15: note = peptide derived from viral capsid protein) [compound 332]	–	–	–	X	–
322 (KSVNVDFTVDTNGVY; REGION 1..15: note = peptide derived from viral capsid protein) [compound 322]	–	–	–	X	–
HYFGYSTPWGYFDF (REGION 1..14: note = peptide derived from viral capsid protein) [SEQ ID NO: 1917]	X	X	X	–	–
YYKSTNVDFAVNTE [SEQ ID NO: 1916]	X	X	X	–	–
DKAYDQQLQAGDNP (REGION 1..14: note = peptide derived from viral capsid protein) [SEQ ID NO: 1928]	X	X	X	–	–
292 (HDDEERFFPSSGVLM; REGION 1..15: note = peptide derived from viral capsid protein) [compound 292]	–	–	–	X	–
QQRVSTTLSQNNNS [SEQ ID NO: 1963]	X	X	X	–	–
GQNNNSNFAWTAGT [SEQ ID NO: 1936]	X	X	X	–	–
321 (IEKVMITDEEEIRTT; REGION 1..15: note = peptide derived from viral capsid protein) [compound 321]	–	–	–	X	–
324 (SDIRDQSRNWLPGPC; REGION 1..15: note = peptide derived from viral capsid protein) [compound 324]	–	–	–	X	–
428 (PVATEEYGIVADNLQ; REGION 1..15: note = peptide derived from viral capsid protein) [compound 428]	–	–	–	–	group III [5]: X

Substance	group I [1]	group II [2]	group III [3]	group III [4]	further results
SESVPDPQPLGEPP (REGION 1..14: note = peptide derived from viral capsid protein) [SEQ ID NO: 1922]	X	X	X	–	–
425 (ELQKENSKRWNPEIQ; REGION 1..15: note = peptide derived from viral capsid protein) [compound 425]	–	–	–	–	group III [5]: X
475 (AGPPKPKPNQQHQDQ; REGION 1..15: note = peptide derived from viral capsid protein) [compound 475]	–	–	–	–	group III [5]: X
295 (DNPYLRYHADAEFQE; REGION 1..15: note = peptide derived from viral capsid protein) [compound 295]	–	–	–	X	–
354 (YFDFNRFHCHFSPRD; REGION 1..15: note = peptide derived from viral capsid protein) [compound 354]	–	–	–	X	–
466 (ELKKENSKRWNPEIQ; REGION 1..15: note = peptide derived from viral capsid protein) [compound 466]	–	–	–	–	group III [5]: X
453 (FGYSTPWGYFDFNRF; REGION 1..15: note = peptide derived from viral capsid protein) [compound 453]	–	–	–	–	group III [5]: X
359 (SVPDPQPLGEPPATP; REGION 1..15: note = peptide derived from viral capsid protein) [compound 359]	–	–	–	X	–
EEIKTTNPVATEQY (REGION 1..14: note = peptide derived from viral capsid protein) [SEQ ID NO: 1945]	X	X	X	–	–
447 (YNNHLYKQISNGTSG; REGION 1..15: note = peptide derived from viral capsid protein) [compound 447]	–	–	–	–	group III [5]: X
SGGSTNDNTYFGYS [SEQ ID NO: 1965]	X	X	X	–	–
296 (NTPVPADPPTTFNQA; REGION 1..15: note = peptide derived from viral capsid protein) [compound 296]	–	–	–	X	–
312 (NEADAAALEHDKAYD; REGION 1..15: note = peptide derived from viral capsid protein) [compound 312]	–	–	–	X	–
311 (QGVLPGMVWQDRDVY; REGION 1..15: note = peptide derived from viral capsid protein) [compound 311]	–	–	–	X	–
320 (GPPPPKPAERHKDDS; REGION 1..15: note = peptide derived from viral capsid protein) [compound 320]	–	–	–	X	–
TGDSESVPDPQPIG [SEQ ID NO: 1967]	X	X	X	–	–
431 (EIKTTNPVATEEYGI; REGION 1..15: note = peptide derived from viral capsid protein) [compound 431]	–	–	–	–	group III [5]: X
349 (GSQAVGRSSFYCLEY; REGION 1..15: note = peptide derived from viral capsid protein) [compound 349]	–	–	–	X	–
340 (FSYTFEDVPFHSSYA; REGION 1..15: note = peptide derived from viral capsid protein) [compound 340]	–	–	–	X	–
298 (PLGLVESPVKTAPGK; REGION 1..15: note = peptide derived from viral capsid protein) [compound 298]	–	–	–	X	–
430 (NTPVPADPPTTFNQS; REGION 1..15: note = peptide derived from viral capsid protein) [compound 430]	–	–	–	–	group III [5]: X
339 (GNNFTFSYTFEDVPF; REGION 1..15: note = peptide derived from viral capsid protein) [compound 339]	–	–	–	X	–
LQQQNTAPQIGTVN (REGION 1..14: note = peptide derived from viral capsid protein) [SEQ ID NO: 1934]	X	X	X	–	–
